Source: patent publication US20230381257A1, “HERBAL COMPOSITION JCM-16021 AS TREATMENT FOR INFLAMMATORY BOWEL DISEASE” (Hong Kong Baptist University, priority 2022, published 2023)

Key:
Type in all cases: in vivo, Rag 1−/− immunodeficient mice
[1] = tested on: CD4+Foxp3+ Treg cells; test: Flow cytometry of regulatory T cells in colon lamina propria lymphocytes, T cell transfer colitis model; details: JCM-16021 2.0 g/kg; IFLX 5 mg/kg; FACS, FIG. 4B
Method: After dissecting and isolating the colon from mice, it was washed four times in ice-cold PBS (137 mM NaCl, 2.7 mM KCl, 10 mM Na2HPO4, 1.8 mM KH2PO4, pH 7.4) and then cut into approximately 1 cm long fragments. Intestinal epithelial cells and lamina propria were separated by vigorous shaking in HBSS buffer containing 2 mM EDTA at 37° C. for 30 minutes. Intestinal epithelial cells were collected by centrifugation at 1,000 rpm at 4° C. The remaining colon tissue was incubated with digestion buffer (DMEM medium, 5% fetal calf serum, 1 mg/mL collagenase IV and DNAse I) at 37° C. with shaking for 40 minutes to separate colon lamina propria lymphocytes. The digested colon tissue cell suspension was filtered through a 70 micron cell filter and centrifuged. […]
Colon lamina propria lymphocytes were diluted to 1×10^5 cells/mL and subjected to intracellular staining after fixation and permeabilization. Cells were stained with a primary antibody diluted 1:100 at 4° C. in the dark for 30 minutes and analyzed by flow cytometry using antibodies against CD3 (APC, BD Biosciences), CD4 (FITC, BD Biosciences), and Foxp3 (PE, BD Biosciences). Analysis was performed using a BD LSRFortessa™ flow cytometer (BD Biosciences) and data obtained was analyzed using FlowJo software. […]

[2] = tested on: Tnf-α and Mcp-1 mRNA; test: qRT-PCR of colon tissue, T cell transfer colitis model
Method: Total RNA was extracted from tissues using Trizol reagent (Invitrogen) and reverse transcribed into cDNA using cDNA synthesis kit (Bio-Rad Laboratories). The cDNA was diluted 50-fold as a template for qRT-PCR. According to the kit instructions mRNA expression levels were detected using SYBR Green fluorescent probe. Primers used for qRT-PCR are: Tnf-α, forward primer 5′-[…]-3′ (SEQ ID NO:1), reverse primer 5′-[…]-3′ (SEQ ID NO:2); Mcp-1, forward primer 5′-[…]-3′ (SEQ ID NO:3), reverse primer 5′-[…]-3′ (SEQ ID NO:4); 18S rRNA, forward primer 5′-[…]-3′ (SEQ ID NO:5), reverse primer 5′-[…]-3′ (SEQ ID NO:6).
(§1) CD4^+ naive T cells were isolated and purified from the spleens of wild-type C57BL/6J mice using a naive CD4+ T cell isolation kit (#130-104-453, Miltenyi Biotech) according to the manufacturer's recommendations. The isolated CD4^+ naive T cells were incubated with antibodies against CD4 (#100406, BioLegend), CD25 (#17025182, eBiosciences) and CD45RB (#103314, BioLegend) and purity was analyzed by BD Fortessa flow cytometer (BD Biosciences). 4×10^5 CD4^+ naive T cells were intraperitoneally injected into Rag 1^−/− immunodeficient mice. Clinical symptoms of colitis including fecal occult blood, loose stool/diarrhea, rough/hunched posture and weight loss were monitored every three days thereafter. […]

[3] = tested on: ulcerative colitis induced by CD4+ naive T cell transfer; test: CD4+ naive T cell transfer-induced ulcerative colitis model: fecal occult blood, pathological index, H&E/PAS histology
From the text: Day one of the experiment is defined as i) adoptive transfer of […] CD4^+ T cells to Rag 1^−/− mice or ii) first day of DSS administration. JCM-16021 was orally administered to mice (weighing approximately 22-24 grams) at doses of 1.0 and 2.0 g/kg. Body weight and fecal bleeding were monitored every three days. Mice were euthanized and serum, colon tissue, spleen, mesenteric lymph nodes and feces were collected for further analysis.
Fecal occult blood test kit was purchased from Nanjing Jiancheng Bioengineering Institute and performed according to the kit instructions.
Histological staining, PAS staining, immunohistochemical staining and immunofluorescent staining: • At the end of the experiment, mouse colon tissue was preserved using 4% paraformaldehyde fixed at 4° C. for 2 hours and embedded in paraffin. After dewaxing, mouse colon tissue sections were washed with PBS and blocked with 3% H2O2. Tissue sections were then blocked with blocking solution (10% horse serum, 0.1% bovine serum albumin, 0.2% gelatin) at room temperature for 1 hour to block non-specific sites. […]
Histological grading of colitis were analyzed based on inflammatory features, extent, regeneration, crypt damage and percentage in hematoxylin-eosin and periodic acid-Schiff stained colon sections. Colitis scores will be determined by two independent researchers blinded to animal treatment.
as §1, with “4×10^5 CD4^+ naive T cells were intraperitoneally injected into Rag 1^−/− immunodeficient mice.” left out

infliximab [IFLX] was tested, and the “ratio of CD4+Foxp3+ Treg cells in isolated LPMC” value [1] was “similar”, the “expression level of Tnf-α mRNA in colon tissue” value ([2]; FIG. 2B) was “significantly reduced” and the “expression level of Mcp-1 mRNA in colon tissue” value ([2]; FIG. 2C) was “significantly reduced”. The fecal occult blood ([3]; JCM-16021 1.0 and 2.0 g/kg oral twice daily for three weeks, IFLX 5 mg/kg once weekly, FIG. 1C) was “did not exhibit similar activity”, the “ulcerative colitis pathological index” value ([3]; JCM-16021 1.0 and 2.0 g/kg oral twice daily for three weeks, IFLX 5 mg/kg once weekly, FIG. 1D) was “did not exhibit similar activity” and the “overall therapeutic efficacy (comparison of doses and with IFLX)” value ([3]; JCM-16021 2.0 g/kg vs 1.0 g/kg, infliximab 5 mg/kg under the same experimental conditions) was “less effective than JCM-16021”.
